Among the test systems are ACHN renal; COLO 205 colon; HS 578T breast; KM12 colon; MDA-MB-231 breast; NCI-H522 lung; SK-MEL-2 melanoma; SK-MEL-5 melanoma; SN12C renal; SNB-19 CNS; SNB-75 CNS; TK-10 renal; U251 CNS; UACC-62 melanoma.
Common to all, as to assay: NCI-60 cell line screen, 48 h

Molecules are shown by their SMILES.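 Growth conditions: 96-well plates. Treatment: test compound, 48 hours, 5 concentrations. Analysis: linear interpolation between bracketing concentrations; unreached endpoints set to highest concentration. The concentration for full growth arrest is given as TGI.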 Bounds are passed on as bounds.

As to `CC(=O)OCC1OC(OCCCOP(=S)(OCCC#N)OCC2OC(n3ccc(N)nc3=O)C(OC(=O)c3ccccc3)C2OC(=O)c2ccccc2)C(OC(C)=O)C(OC(C)=O)C1OC(C)=O` (stereo unspecified), the TGI in the assay with ACHN renal, with COLO 205 colon, with HS 578T breast, in the assay with KM12 colon, with MDA-MB-231 breast and in the assay with NCI-H522 lung was above 100 µM throughout. Also, the TGI in the assay on SK-MEL-2 melanoma, in the assay with SK-MEL-5 melanoma, in the assay with SN12C renal, with SNB-19 CNS, with SNB-75 CNS and in the assay on TK-10 renal was above 100 µM throughout. The TGI with U251 CNS and in the assay with UACC-62 melanoma was above 100 µM throughout.
For `CCCCNc1nc(NC2OCC(OC(C)=O)C(OC(C)=O)C2OC(C)=O)c(N=O)c(=O)n1C` (stereo unspecified), the TGI in the assay on ACHN renal, in the assay on COLO 205 colon, with HS 578T breast, in the assay with KM12 colon, in the assay with MDA-MB-231 breast and in the assay with NCI-H522 lung was above 10 µM each time. Moreover, the TGI in the assay with SK-MEL-2 melanoma, in the assay with SK-MEL-5 melanoma, with SN12C renal, in the assay with SNB-19 CNS, with SNB-75 CNS and in the assay on TK-10 renal was above 10 µM in each case. Further, the TGI in the assay with U251 CNS and in the assay on UACC-62 melanoma was above 10 µM in each case.
As for `COc1ccc(C2=NOC(N)(c3ccc(OC)cc3)C2)cc1` (stereo unspecified), the TGI with ACHN renal, in the assay with COLO 205 colon, in the assay on HS 578T breast, in the assay with KM12 colon, in the assay on MDA-MB-231 breast and in the assay on NCI-H522 lung was above 100 µM throughout. Moreover, the TGI with SK-MEL-2 melanoma, with SK-MEL-5 melanoma, in the assay on SN12C renal, with SNB-19 CNS, in the assay on SNB-75 CNS and in the assay with TK-10 renal was above 100 µM each time. Also, the TGI with U251 CNS and in the assay on UACC-62 melanoma was above 100 µM each time.
Turning to `COC(=O)C(Cc1c[nH]c2ccccc12)N=C1Nc2ccncc2S(=O)(=O)N1c1cccc(OC(C)C)c1` (stereo unspecified), the TGI in the assay with ACHN renal, in the assay with COLO 205 colon, in the assay on HS 578T breast, in the assay with KM12 colon, in the assay on MDA-MB-231 breast and in the assay on NCI-H522 lung was above 100 µM in each case. In addition, the TGI with SK-MEL-2 melanoma, in the assay with SK-MEL-5 melanoma, in the assay with SN12C renal, in the assay on SNB-19 CNS, in the assay on SNB-75 CNS and with TK-10 renal was above 100 µM in each case. For the same compound, the TGI with U251 CNS and in the assay with UACC-62 melanoma was above 100 µM throughout.
Regarding `CC(C)(C)OC(=O)NCCCCC(N)NC(=O)c1ccccc1` (stereo unspecified), the TGI with ACHN renal, with COLO 205 colon, in the assay with HS 578T breast, in the assay on KM12 colon, in the assay on MDA-MB-231 breast and in the assay with NCI-H522 lung was above 100 µM in each case. Also, the TGI in the assay on SK-MEL-2 melanoma, with SK-MEL-5 melanoma, with SN12C renal, with SNB-19 CNS, with SNB-75 CNS and in the assay with TK-10 renal was above 100 µM each time. The TGI in the assay on U251 CNS and with UACC-62 melanoma was above 100 µM each time.
For the compound `CC1(C)CC(=O)c2c(nc3c4c([nH]c(-c5ccc(Br)cc5)c24)CC(C)(C)C3)C1`, the TGI in the assay on ACHN renal was above 100 µM; with COLO 205 colon it was 54.2 µM; with HS 578T breast it was above 100 µM; in the assay with KM12 colon it was above 100 µM; in the assay on MDA-MB-231 breast, above 100 µM; with NCI-H522 lung, above 100 µM. Further, the TGI in the assay on SK-MEL-2 melanoma, in the assay with SK-MEL-5 melanoma, in the assay on SN12C renal, in the assay with SNB-19 CNS, in the assay on SNB-75 CNS and in the assay on TK-10 renal was above 100 µM in each case. Also, the TGI in the assay with U251 CNS and in the assay with UACC-62 melanoma was above 100 µM in each case.
Take `COc1cccc(C(=O)C#Cc2cnc(OC)nc2OC)c1`: the TGI is 3.5 µM in the assay with ACHN renal; 3.88 µM in the assay with COLO 205 colon; above 30.2 µM in the assay on HS 578T breast; 18.7 µM in the assay with KM12 colon; 7.42 µM with MDA-MB-231 breast; 0.762 µM with NCI-H522 lung. The TGI with SK-MEL-2 melanoma stood at 3.95 µM; in the assay on SK-MEL-5 melanoma, 3.06 µM; in the assay on SN12C renal, 2 µM; with SNB-19 CNS, 34.8 µM; in the assay with SNB-75 CNS it was 5.45 µM; in the assay with TK-10 renal, 2.91 µM. Moreover, the TGI turned out to be 7.27 µM in the assay with U251 CNS and 3.08 µM in the assay on UACC-62 melanoma.
For `O=[N+]([O-])c1ccc(C(O)(C#CCN2CCCC2)c2ccccc2)cc1` (stereo unspecified), the TGI in the assay on ACHN renal was above 100 µM; with COLO 205 colon it was 37.8 µM; with HS 578T breast it was 95.7 µM; in the assay with KM12 colon, above 100 µM; in the assay with MDA-MB-231 breast, above 100 µM; with NCI-H522 lung, 54.9 µM. For the same compound, the TGI is 75.5 µM in the assay with SK-MEL-2 melanoma; 42.6 µM in the assay with SK-MEL-5 melanoma; above 100 µM in the assay with SN12C renal; above 100 µM in the assay on SNB-19 CNS; above 100 µM in the assay on SNB-75 CNS; above 100 µM in the assay on TK-10 renal. Also, the TGI in the assay on U251 CNS was above 100 µM; with UACC-62 melanoma it was 87.4 µM.
For `CC(C)(C)NC(=O)CCC1C(C(=O)NC(C)(C)C)C2(Cl)C(Cl)=C(Cl)C1(Cl)C2(Cl)Cl` (stereo unspecified), the TGI in the assay with ACHN renal, with COLO 205 colon, with HS 578T breast, with KM12 colon, in the assay on MDA-MB-231 breast and with NCI-H522 lung was above 100 µM each time. In addition, the TGI with SK-MEL-2 melanoma, with SK-MEL-5 melanoma, in the assay on SN12C renal, with SNB-19 CNS, in the assay on SNB-75 CNS and with TK-10 renal was above 100 µM in each case. Moreover, the TGI in the assay with U251 CNS and with UACC-62 melanoma was above 100 µM throughout.

The record behind these values is PubChem BioAssay (NCI).
